Values after ≈ are worked out from the molar mass of the structure shown.
Columns and labels:
Experiment in all cases: ≥ marks a high value that may be exact or a test limit, other limits are often not marked, values filed in µg/mL are converted to µM
[1] = tested on: Escherichia coli ATCC 25922
[2] = tested on: Pseudomonas aeruginosa CMCCB 10104
[3] = tested on: Candida albicans ATCC 2002
[4] = tested on: Staphylococcus aureus ATCC 25923
[5] = tested on: Candida albicans ATCC 90028
[6] = tested on: Escherichia coli ATCC 25726
[7] = tested on: Enterococcus faecalis ATCC 29212
[8] = tested on: Pseudomonas aeruginosa H103
Escherichia coli UB1005 = tested on: Escherichia coli UB1005
[9] = tested on: Salmonella enterica serovar Typhimurium
Candida albicans = tested on: Candida albicans
[10] = tested on: Staphylococcus epidermidis

MIC [1] [µM]	MIC [2] [µM]	MIC [3] [µM]	MIC [4] [µM]	MIC [5] [µM]	MIC [6] [µM]	MIC [7] [µM]	MIC [8] [µM]	MIC (Escherichia coli UB1005) [µM]	MIC [9] [µM]	MIC (Candida albicans) [µM]	MIC [10] [µM]	Structure (SMILES)
6.58 (≈ 10.5 µg/mL)	6.58 (≈ 10.5 µg/mL)	3.32 (≈ 5.3 µg/mL)	13.2 (≈ 21 µg/mL)									CC[C@H](C)[C@H](NC(=O)CNC(=O)[C@H](C)NC(=O)[C@H](Cc1ccccc1)NC(=O)[C@H](CC(C)C)NC(=O)[C@H](CCCCN)NC(=O)[C@@H]1CCCN1C(=O)[C@H](CC(C)C)NC(=O)[C@@H](N)Cc1ccccc1)C(=O)N[C@H](C(=O)N[C@@H](CO)C(=O)N[C@@H](CCCCN)C(=O)N[C@@H](CC(N)=O)C(=O)N[C@@H](Cc1ccccc1)C(=O)O)[C@@H](C)CC [FLPKLFAGIISKNF]
1.83 (≈ 8.8 µg/mL)	3.66 (≈ 17.6 µg/mL)	1.83 (≈ 8.8 µg/mL)	0.915 (≈ 4.4 µg/mL)									CC[C@H](C)[C@H](NC(=O)CN)C(=O)N[C@@H](Cc1ccccc1)C(=O)N[C@@H](CO)C(=O)N[C@@H](CCCCN)C(=O)N[C@H](C(=O)N[C@@H](CO)C(=O)NCC(=O)N[C@@H](CCCCN)C(=O)N[C@@H](C)C(=O)N[C@H](C(=O)N[C@@H](CCCCN)C(=O)N[C@@H](CC(N)=O)C(=O)N[C@@H](CC(C)C)C(=O)N[C@@H](Cc1ccccc1)C(=O)N[C@H](C(=O)N[C@@H](CCCCN)C(=O)NCC(=O)N[C@@H](C)C(=O)N[C@@H](CCCCN)C(=O)N[C@@H](CC(N)=O)C(=O)N[C@H](C(=O)NCC(=O)N[C@@H](CCCCN)C(=O)N[C@@H](CCC(=O)O)C(=O)N[C@H](C(=O)NCC(=O)N[C@@H](CCSC)C(=O)N[C@@H](CC(=O)O)C(=O)N[C@H](C(=O)N[C@H](C(=O)N[C@@H](CCCN=C(N)N)C(=O)N[C@H](C(=O)NCC(=O)N[C@H](C(=O)N[C@@H](CC(=O)O)C(=O)N[C@H](C(=O)N[C@H](C(=O)NCC(=O)N[C@H]1CSSC[C@@H](C(=O)O)NC(=O)[C@H](CCC(=O)O)NC(=O)CNC(=O)[C@H](CCCCN)NC(=O)[C@H]([C@@H](C)CC)NC(=O)[C@H](CCCCN)NC1=O)C(C)C)C(C)C)[C@@H](C)CC)[C@@H](C)O)C(C)C)C(C)C)C(C)C)C(C)C)[C@@H](C)CC)[C@@H](C)CC)[C@@H](C)CC [GIFSKISGKAIKNLFIKGAKNVGKEVGMDVVRTGIDVVGCKIKGEC]
			> 80	≥ 80	≥ 80							CC[C@H](C)[C@H](NC(=O)[C@@H](NC(=O)[C@@H](NC(=O)CNC(=O)[C@H](C)NC(=O)[C@@H](NC(=O)[C@H](CC(N)=O)NC(=O)[C@@H](NC(=O)[C@H](C)NC(=O)[C@H](CC(C)C)NC(=O)[C@H](CC(N)=O)NC(=O)[C@H](CCCCN)NC(=O)[C@H](Cc1ccccc1)NC(=O)[C@@H](NC(=O)[C@H](CO)NC(=O)[C@H](CC(C)C)NC(=O)[C@H](CC(C)C)NC(=O)CN)[C@@H](C)O)[C@@H](C)O)C(C)C)[C@@H](C)O)C(C)C)C(=O)N[C@@H](CC(=O)O)C(=O)N[C@H](C(=O)N[C@@H](CC(C)C)C(=O)N[C@@H](CCCCN)C(=O)N[C@H]1CSSC[C@@H](C(=O)N[C@@H](CCCN=C(N)N)C(=O)N[C@H](C(=O)O)[C@@H](C)O)NC(=O)CNC(=O)CNC(=O)[C@H]([C@@H](C)O)NC(=O)[C@H](C(C)C)NC(=O)[C@H](CCCCN)NC1=O)[C@@H](C)O [GLLSTFKNLATNVAGTVIDTLKCKVTGGCRT]
2.4 (≈ 7.9 µg/mL)	4.8 (≈ 15.8 µg/mL)	1.22 (≈ 4 µg/mL)	1.22 (≈ 4 µg/mL)									CC(C)C[C@H](NC(=O)[C@H](CC(C)C)NC(=O)[C@H](CC(N)=O)NC(=O)[C@H](CCCCN)NC(=O)[C@@H](NC(=O)[C@@H](NC(=O)[C@H](C)NC(=O)[C@H](CC(C)C)NC(=O)[C@@H](NC(=O)CN)C(C)C)[C@@H](C)O)C(C)C)C(=O)N[C@@H](CC(N)=O)C(=O)NCC(=O)N[C@H](C(=O)NCC(=O)N[C@@H](CC(=O)O)C(=O)NCC(=O)N[C@@H](C)C(=O)N[C@@H](C)C(=O)N[C@@H](CCC(N)=O)C(=O)N[C@@H](CO)C(=O)N[C@H](C(=O)N[C@@H](CC(C)C)C(=O)N[C@@H](CCCCN)C(=O)N[C@H](C(=O)N[C@@H](CC(C)C)C(=O)N[C@@H](CO)C(=O)N[C@H]1CSSC[C@@H](C(=O)O)NC(=O)[C@H](CC(=O)O)NC(=O)[C@H](CC(N)=O)NC(=O)[C@H](CO)NC(=O)[C@H](CC(C)C)NC(=O)[C@H](CCCCN)NC1=O)[C@@H](C)O)C(C)C)[C@@H](C)O [GVLATVKNLLNGTGDGAAQSVLKTLSCKLSNDC]
			0.7 (≈ 1.04 µg/mL)			11.1 (≈ 16.5 µg/mL)	11.1 (≈ 16.5 µg/mL)	2.8 (≈ 4.17 µg/mL)	5.6 (≈ 8.33 µg/mL)	5.6 (≈ 8.33 µg/mL)	0.7 (≈ 1.04 µg/mL)	NCCCC[C@H](NC(=O)[C@H](Cc1c[nH]c2ccccc12)NC(=O)[C@H](Cc1c[nH]c2ccccc12)NC(=O)[C@H](CCCN=C(N)N)NC(=O)[C@@H](N)CCCCN)C(=O)N[C@@H](Cc1c[nH]c2ccccc12)C(=O)N[C@@H](Cc1c[nH]c2ccccc12)C(=O)N[C@@H](CCCN=C(N)N)C(=O)N[C@@H](CCCN=C(N)N)C(=O)O [KRWWKWWRR]
			0.7 (≈ 1.05 µg/mL)			11.7 (≈ 17.6 µg/mL)	≥ 46.9	2.9 (≈ 4.37 µg/mL)	5.9 (≈ 8.89 µg/mL)	5.9 (≈ 8.89 µg/mL)	0.7 (≈ 1.05 µg/mL)	NCCCC[C@H](N)C(=O)N[C@@H](CCCN=C(N)N)C(=O)N[C@@H](Cc1c[nH]c2ccccc12)C(=O)N[C@@H](Cc1c[nH]c2ccccc12)C(=O)N[C@@H](Cc1c[nH]c2ccccc12)C(=O)N[C@@H](Cc1c[nH]c2ccccc12)C(=O)N[C@@H](CCCN=C(N)N)C(=O)N[C@@H](Cc1ccccc1)C(=O)N[C@@H](CCCN=C(N)N)C(=O)O [KRWWWWRFR]
			1.6 (≈ 2.11 µg/mL)			6.4 (≈ 8.43 µg/mL)	25.7 (≈ 33.9 µg/mL)	3.2 (≈ 4.22 µg/mL)	6.4 (≈ 8.43 µg/mL)	6.4 (≈ 8.43 µg/mL)	1.6 (≈ 2.11 µg/mL)	CC[C@H](C)[C@H](NC(=O)[C@H](Cc1ccccc1)NC(=O)[C@H](CCCN=C(N)N)NC(=O)[C@@H](N)CC(C)C)C(=O)N[C@@H](CC(C)C)C(=O)N[C@@H](Cc1c[nH]c2ccccc12)C(=O)N[C@@H](Cc1c[nH]c2ccccc12)C(=O)N[C@@H](CCCCN)C(=O)N[C@@H](CCCN=C(N)N)C(=O)O [LRFILWWKR]
			86.5 (≈ 114 µg/mL)			> 86.5	≥ 86.5	≥ 86.5	≥ 86.5	86.5 (≈ 114 µg/mL)	≥ 43.3	CC(C)C[C@H](NC(=O)[C@H](CCCCN)NC(=O)[C@H](CCCN=C(N)N)NC(=O)[C@H](Cc1c[nH]c2ccccc12)NC(=O)[C@@H](N)CC(N)=O)C(=O)N[C@@H](Cc1ccc(O)cc1)C(=O)N[C@@H](CCCN=C(N)N)C(=O)N[C@@H](CCCN=C(N)N)C(=O)N[C@@H](CCCCN)C(=O)O [NWRKLYRRK]
			4.06 (≈ 6 µg/mL)				4.06 (≈ 6 µg/mL)	2.03 (≈ 3 µg/mL)	4.06 (≈ 6 µg/mL)	2.03 (≈ 3 µg/mL)	1.08 (≈ 1.6 µg/mL)	CC[C@H](C)[C@H](NC(=O)[C@H](CCCN=C(N)N)NC(=O)[C@H](CC(C)C)NC(=O)[C@H](CCCN=C(N)N)NC(=O)[C@@H](N)C(C)C)C(=O)N[C@@H](CCCN=C(N)N)C(=O)N[C@H](C(=O)N[C@@H](C)C(=O)N[C@H](C(=O)N[C@H](C(=O)N[C@@H](CCCN=C(N)N)C(=O)N[C@@H](CCCCN)C(N)=O)[C@@H](C)CC)C(C)C)C(C)C [VRLRIRVAVIRK]
			2.9 (≈ 3.92 µg/mL)			11.5 (≈ 15.6 µg/mL)	≥ 46.1	5.8 (≈ 7.85 µg/mL)	23.1 (≈ 31.2 µg/mL)	11.5 (≈ 15.6 µg/mL)	2.9 (≈ 3.92 µg/mL)	CSCC[C@H](NC(=O)[C@H](CCCCN)NC(=O)[C@H](Cc1ccccc1)NC(=O)[C@@H](N)Cc1c[nH]c2ccccc12)C(=O)N[C@@H](CCCN=C(N)N)C(=O)N[C@@H](Cc1c[nH]c2ccccc12)C(=O)N[C@@H](Cc1c[nH]c2ccccc12)C(=O)NCC(=O)N[C@@H](CCCN=C(N)N)C(=O)O [WFKMRWWGR]

From DBAASP
